According to ChEMBL document CHEMBL1201862, “PubChem BioAssay data set” (2004):
The source made the active and inactive calls.

Columns and labels:
DNA topoisomerase = biological target: T1, DNA topoisomerase (Yersinia pestis, UniProt A0A2S9PM60); experiment: Yersinia topoisomerase I cleavage product accumulation – biochemical, cherry-pick, dose response (AID 588525)
T1 sequence (A0A2S9PM60 whole entry): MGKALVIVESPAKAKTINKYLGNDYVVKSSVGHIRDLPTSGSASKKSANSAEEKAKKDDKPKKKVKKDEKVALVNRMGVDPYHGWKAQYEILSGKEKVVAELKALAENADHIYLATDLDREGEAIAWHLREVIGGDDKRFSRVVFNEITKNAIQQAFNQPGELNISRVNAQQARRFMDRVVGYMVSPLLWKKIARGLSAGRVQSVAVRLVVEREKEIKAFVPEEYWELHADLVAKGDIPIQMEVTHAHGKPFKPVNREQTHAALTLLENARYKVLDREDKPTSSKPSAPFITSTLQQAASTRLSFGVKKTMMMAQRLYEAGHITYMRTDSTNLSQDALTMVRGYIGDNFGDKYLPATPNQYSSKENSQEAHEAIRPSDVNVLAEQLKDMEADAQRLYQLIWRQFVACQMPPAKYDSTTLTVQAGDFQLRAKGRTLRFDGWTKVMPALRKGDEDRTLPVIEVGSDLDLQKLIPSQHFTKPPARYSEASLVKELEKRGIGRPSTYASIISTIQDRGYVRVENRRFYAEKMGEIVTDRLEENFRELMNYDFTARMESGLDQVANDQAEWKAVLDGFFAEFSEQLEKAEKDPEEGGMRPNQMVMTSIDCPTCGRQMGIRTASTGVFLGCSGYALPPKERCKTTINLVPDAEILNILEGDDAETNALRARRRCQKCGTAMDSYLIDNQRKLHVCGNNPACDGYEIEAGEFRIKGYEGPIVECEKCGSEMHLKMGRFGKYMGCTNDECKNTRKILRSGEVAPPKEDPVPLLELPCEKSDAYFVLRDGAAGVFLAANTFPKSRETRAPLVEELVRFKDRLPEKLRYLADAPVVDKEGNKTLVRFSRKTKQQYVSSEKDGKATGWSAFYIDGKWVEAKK

Phospholipase A2 = Phospholipase A2 (Homo sapiens, UniProt P04054); format: functional;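 further: confirmatory dose-response counterscreen on phospholipase A2, testing hits that came from an ultra-high-throughput screen for ATG4B inhibitors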
Phospholipase A2, sequence (P04054 whole entry): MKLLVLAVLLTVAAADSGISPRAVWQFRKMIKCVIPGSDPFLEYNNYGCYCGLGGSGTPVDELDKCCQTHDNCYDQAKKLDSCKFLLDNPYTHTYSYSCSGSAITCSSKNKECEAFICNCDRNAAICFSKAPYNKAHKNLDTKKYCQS

Cysteine protease ATG4B = biological target: T2, Cysteine protease ATG4B (Homo sapiens, UniProt Q9Y4P1); format: functional;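 further: Fluorescence-based dose-response confirmation assay measuring inhibition of ATG4B activity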
T2 sequence (Q9Y4P1 whole entry): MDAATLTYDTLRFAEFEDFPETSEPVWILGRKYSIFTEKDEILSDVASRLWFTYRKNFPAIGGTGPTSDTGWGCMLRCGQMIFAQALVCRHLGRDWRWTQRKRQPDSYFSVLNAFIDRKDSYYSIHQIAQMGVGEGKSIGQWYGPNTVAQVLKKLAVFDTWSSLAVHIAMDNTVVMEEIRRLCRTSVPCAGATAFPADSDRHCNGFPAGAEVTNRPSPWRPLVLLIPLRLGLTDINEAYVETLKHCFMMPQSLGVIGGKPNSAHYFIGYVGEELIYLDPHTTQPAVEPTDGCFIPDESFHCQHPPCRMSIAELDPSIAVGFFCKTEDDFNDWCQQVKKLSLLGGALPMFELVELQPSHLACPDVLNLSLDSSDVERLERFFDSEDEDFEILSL

Cytochrome P450 2C9 = Cytochrome P450 2C9 (Homo sapiens, UniProt P11712)
Cytochrome P450 2C9, sequence (P11712 whole entry): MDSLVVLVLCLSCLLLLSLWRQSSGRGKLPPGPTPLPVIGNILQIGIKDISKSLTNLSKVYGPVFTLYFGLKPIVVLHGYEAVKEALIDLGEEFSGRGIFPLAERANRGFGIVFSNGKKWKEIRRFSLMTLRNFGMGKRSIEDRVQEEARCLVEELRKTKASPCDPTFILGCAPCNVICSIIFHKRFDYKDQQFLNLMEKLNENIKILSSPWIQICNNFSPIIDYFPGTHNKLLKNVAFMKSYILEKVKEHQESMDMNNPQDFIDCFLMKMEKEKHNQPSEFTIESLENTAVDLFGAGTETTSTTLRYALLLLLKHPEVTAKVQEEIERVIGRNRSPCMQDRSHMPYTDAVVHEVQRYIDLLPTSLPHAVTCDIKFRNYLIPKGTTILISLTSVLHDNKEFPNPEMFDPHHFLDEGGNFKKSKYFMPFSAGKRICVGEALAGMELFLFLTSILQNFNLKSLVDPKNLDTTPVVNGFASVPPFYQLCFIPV

Beta-galactosidase = Beta-galactosidase (Escherichia coli, UniProt Q8VNN2); experiment: PubChem AID 485352; format: functional
Beta-galactosidase, sequence (Q8VNN2 whole entry): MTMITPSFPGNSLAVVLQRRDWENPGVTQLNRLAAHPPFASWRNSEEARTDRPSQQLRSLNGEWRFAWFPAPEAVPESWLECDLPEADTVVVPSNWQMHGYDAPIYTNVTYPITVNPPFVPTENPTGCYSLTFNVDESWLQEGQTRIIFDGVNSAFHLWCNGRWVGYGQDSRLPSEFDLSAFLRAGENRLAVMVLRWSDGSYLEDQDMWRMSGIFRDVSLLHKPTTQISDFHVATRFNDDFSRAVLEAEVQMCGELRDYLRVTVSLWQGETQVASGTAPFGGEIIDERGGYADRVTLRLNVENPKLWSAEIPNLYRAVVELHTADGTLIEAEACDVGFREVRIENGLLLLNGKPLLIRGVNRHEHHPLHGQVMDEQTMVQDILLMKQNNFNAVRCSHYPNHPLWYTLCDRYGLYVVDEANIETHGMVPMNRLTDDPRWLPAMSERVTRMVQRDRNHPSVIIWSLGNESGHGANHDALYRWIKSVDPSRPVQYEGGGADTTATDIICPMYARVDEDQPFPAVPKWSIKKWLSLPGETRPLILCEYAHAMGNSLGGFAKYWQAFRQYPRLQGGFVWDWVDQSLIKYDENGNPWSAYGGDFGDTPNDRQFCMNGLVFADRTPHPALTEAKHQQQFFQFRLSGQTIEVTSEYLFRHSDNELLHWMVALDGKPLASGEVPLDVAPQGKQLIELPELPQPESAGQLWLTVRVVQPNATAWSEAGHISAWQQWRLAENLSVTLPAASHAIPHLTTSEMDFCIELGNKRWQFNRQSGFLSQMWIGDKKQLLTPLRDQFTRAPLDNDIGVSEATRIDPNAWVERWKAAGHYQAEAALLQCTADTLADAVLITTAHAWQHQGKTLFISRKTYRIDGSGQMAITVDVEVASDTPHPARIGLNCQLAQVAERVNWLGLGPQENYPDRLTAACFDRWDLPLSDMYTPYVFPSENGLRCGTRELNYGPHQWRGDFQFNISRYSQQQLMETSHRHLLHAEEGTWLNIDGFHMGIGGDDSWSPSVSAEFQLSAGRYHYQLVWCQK

[1] = biological target: T3, Type-1 angiotensin II receptor (Homo sapiens, UniProt P30556); experiment: antagonism of angiotensin II type 1 receptor – cell-based, uHTS hits, selectivity assay for APJ receptor antagonist project, dose response (AID 463214); format: functional;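 further: antagonist potency against angiotensin II stimulated AT1 response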
T3 sequence (P30556 whole entry): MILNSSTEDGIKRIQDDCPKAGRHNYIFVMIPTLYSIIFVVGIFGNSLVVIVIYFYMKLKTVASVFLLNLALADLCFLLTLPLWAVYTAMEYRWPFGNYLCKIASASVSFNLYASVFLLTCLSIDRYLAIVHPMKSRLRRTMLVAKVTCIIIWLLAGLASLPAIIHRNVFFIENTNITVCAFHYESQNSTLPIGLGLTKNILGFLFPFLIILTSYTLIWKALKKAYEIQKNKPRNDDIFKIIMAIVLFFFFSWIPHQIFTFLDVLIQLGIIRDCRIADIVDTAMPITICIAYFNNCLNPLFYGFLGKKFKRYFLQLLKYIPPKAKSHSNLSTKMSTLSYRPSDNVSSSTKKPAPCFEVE

[2] = biological target: T4, Endoribonuclease toxin MazF (Escherichia coli K-12, UniProt P0AE70); experiment: activation of MazEF endoribonuclease cleavage – biochemical, fluorescence, single-stranded RNA substrate, uHTS hits, dose response (AID 588481); format: functional
T4 sequence (P0AE70 whole entry): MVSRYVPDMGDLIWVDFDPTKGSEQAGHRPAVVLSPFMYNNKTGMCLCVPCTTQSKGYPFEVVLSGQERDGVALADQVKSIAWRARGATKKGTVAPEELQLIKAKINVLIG

[3] = biological target: T5, Polyadenylate-binding protein 1 (Homo sapiens, UniProt P11940); experiment: MLLE binding blockers, Cy5 peptide tracer – biochemical, fluorescence polarization, Cy5-PAM2 peptide, secondary, miRNA deadenylation inhibitor project, dose response (AID 602260); format: functional; conditions: read-out: IC50_Mean
T5 sequence (P11940 whole entry): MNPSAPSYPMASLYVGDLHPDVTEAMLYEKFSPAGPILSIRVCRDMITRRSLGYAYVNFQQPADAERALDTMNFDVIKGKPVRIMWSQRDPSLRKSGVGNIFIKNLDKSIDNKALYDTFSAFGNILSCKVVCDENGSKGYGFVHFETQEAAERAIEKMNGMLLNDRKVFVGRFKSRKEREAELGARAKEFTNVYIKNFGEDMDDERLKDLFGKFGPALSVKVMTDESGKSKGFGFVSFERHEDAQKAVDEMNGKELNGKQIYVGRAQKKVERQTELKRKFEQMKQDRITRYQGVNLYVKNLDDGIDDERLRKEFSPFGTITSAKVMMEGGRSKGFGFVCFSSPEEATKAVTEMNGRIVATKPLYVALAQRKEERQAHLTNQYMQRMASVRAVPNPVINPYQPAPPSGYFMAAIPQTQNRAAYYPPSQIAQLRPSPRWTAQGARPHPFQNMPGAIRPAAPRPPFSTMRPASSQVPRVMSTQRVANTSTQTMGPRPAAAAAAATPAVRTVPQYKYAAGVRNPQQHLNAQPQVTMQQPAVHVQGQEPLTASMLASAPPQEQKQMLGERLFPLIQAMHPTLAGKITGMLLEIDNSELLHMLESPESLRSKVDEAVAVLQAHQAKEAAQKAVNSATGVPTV

[4] = biological target: T4, Endoribonuclease toxin MazF; experiment: substrate-only fluorescence increase artefacts – biochemical, single-stranded RNase substrate, counter-screen for MazEF activator project, dose response (AID 588502); format: functional
[5] = biological target: T5, Polyadenylate-binding protein 1; experiment: MLLE domain peptide-binding blockers, IC50 – biochemical, fluorescence polarization, FITC-PAM2 peptide, dose response (AID 602259); format: functional; conditions: read-out: IC50_Mean
Prothrombin = Prothrombin (Homo sapiens, UniProt P00734); experiment: Thrombin 1536 HTS Dose Response Confirmation. [Related pubchem assays: 1046 (Thrombin 1536 HTS; hits were confirmed in this assay)]; format: functional
[6] = biological target: Heat shock protein HSP 90-alpha (Homo sapiens, UniProt P07900); format: functional, organism-based
[7] = biological target: T6, Sentrin-specific protease 7 (Homo sapiens, UniProt Q9BQF6); format: functional;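 further: Luminescence-based dose-response confirmation of ultra-high-throughput screening hits, measuring inhibition of SENP7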
T6 sequence (Q9BQF6 whole entry): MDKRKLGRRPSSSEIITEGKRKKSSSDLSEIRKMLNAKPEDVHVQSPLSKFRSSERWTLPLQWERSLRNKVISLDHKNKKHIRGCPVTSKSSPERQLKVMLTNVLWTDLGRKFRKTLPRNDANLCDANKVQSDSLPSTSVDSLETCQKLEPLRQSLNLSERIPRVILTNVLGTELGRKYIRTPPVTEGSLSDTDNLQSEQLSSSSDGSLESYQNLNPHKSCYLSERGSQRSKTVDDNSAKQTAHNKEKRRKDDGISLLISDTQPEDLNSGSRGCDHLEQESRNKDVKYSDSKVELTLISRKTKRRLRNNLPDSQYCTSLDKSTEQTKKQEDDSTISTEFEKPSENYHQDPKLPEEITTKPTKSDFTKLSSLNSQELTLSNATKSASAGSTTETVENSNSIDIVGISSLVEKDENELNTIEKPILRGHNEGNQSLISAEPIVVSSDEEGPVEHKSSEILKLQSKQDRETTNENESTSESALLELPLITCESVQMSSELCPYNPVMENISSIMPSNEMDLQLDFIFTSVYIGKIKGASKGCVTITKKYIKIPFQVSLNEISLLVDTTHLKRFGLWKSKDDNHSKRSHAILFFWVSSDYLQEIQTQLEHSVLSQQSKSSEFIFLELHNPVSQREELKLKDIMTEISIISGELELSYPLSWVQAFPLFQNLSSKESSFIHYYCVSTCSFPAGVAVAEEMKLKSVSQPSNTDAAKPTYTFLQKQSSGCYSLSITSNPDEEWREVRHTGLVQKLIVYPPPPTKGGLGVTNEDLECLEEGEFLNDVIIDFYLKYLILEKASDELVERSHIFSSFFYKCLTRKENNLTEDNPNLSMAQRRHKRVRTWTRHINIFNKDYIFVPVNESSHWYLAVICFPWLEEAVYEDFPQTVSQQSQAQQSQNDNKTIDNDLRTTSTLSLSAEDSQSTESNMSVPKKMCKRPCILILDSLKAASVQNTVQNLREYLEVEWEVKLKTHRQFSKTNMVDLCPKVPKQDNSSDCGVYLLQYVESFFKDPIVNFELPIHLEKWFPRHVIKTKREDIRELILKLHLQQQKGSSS

[8] = biological target: T7, Sentrin-specific protease 8 (Homo sapiens, UniProt Q96LD8); format: functional;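 further: luminescence read-out of SENP8 inhibition, dose-response confirmation following an ultra-high-throughput screen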
T7 sequence (Q96LD8 whole entry): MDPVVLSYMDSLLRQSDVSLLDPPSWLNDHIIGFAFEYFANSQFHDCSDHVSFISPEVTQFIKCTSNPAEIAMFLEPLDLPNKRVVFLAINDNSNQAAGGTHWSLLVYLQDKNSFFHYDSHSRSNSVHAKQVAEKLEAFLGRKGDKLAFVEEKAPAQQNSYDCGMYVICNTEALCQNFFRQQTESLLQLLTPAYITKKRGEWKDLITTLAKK

[9] = biological target: T8, Sentrin-specific protease 6 (Homo sapiens, UniProt Q9GZR1); format: functional;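 further: Luminescence-based dose-response confirmatory assay of SENP6 inhibition, following up an ultra-high-throughput screen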
T8 sequence (Q9GZR1 whole entry): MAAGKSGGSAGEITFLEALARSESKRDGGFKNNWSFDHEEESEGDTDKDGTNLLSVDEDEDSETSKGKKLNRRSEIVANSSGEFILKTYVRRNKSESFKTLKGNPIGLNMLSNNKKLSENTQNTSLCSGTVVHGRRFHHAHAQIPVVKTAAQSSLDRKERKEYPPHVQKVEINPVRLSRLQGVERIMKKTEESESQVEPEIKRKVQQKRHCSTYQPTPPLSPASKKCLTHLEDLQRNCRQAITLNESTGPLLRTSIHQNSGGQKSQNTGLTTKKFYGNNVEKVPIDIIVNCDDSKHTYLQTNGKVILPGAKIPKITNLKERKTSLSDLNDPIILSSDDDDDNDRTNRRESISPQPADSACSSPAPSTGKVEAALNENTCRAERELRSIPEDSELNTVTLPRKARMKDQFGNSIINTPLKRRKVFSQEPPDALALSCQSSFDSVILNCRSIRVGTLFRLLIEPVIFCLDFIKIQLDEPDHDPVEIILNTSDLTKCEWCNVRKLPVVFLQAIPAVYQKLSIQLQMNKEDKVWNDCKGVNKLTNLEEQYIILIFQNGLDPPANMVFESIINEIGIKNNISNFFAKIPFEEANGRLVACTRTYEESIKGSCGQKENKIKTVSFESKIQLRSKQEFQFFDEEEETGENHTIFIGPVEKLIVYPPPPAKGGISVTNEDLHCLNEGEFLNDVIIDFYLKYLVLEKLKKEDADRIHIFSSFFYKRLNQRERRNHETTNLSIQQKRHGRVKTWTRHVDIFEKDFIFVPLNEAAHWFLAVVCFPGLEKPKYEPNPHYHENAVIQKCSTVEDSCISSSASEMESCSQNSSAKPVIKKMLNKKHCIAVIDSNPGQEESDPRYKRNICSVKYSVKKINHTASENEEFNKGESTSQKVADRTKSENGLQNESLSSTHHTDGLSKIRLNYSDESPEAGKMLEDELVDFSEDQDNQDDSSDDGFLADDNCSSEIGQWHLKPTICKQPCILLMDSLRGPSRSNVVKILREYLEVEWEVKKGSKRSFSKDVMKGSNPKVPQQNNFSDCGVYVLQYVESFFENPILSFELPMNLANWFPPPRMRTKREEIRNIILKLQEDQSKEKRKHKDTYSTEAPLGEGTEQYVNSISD

[10] = biological target: Luciferin 4-monooxygenase (Photinus pyralis, UniProt P08659); experiment: inhibition of purified Photinus pyralis luciferase – biochemical, luminescence, dose response (AID 1891)
Luciferin 4-monooxygenase, sequence (P08659 whole entry): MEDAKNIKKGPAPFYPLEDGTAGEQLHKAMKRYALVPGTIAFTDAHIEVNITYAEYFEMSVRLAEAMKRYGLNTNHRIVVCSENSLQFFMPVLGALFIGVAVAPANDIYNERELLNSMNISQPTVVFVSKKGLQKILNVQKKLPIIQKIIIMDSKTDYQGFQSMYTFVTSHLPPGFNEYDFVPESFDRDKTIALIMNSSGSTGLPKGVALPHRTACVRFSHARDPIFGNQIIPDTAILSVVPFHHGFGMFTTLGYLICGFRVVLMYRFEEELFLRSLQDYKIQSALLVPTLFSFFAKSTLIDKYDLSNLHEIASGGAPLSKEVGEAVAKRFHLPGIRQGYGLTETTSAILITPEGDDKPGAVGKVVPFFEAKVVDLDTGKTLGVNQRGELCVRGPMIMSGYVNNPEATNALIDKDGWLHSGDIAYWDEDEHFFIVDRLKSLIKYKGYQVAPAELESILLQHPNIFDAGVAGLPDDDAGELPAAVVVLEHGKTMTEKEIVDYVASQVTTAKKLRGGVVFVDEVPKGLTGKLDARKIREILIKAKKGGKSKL

[11] = Luminescence Cell-Based Dose Confirmation HTS to Identify Inhibitors of Platelet Dense Granule Release. [Related pubchem assays: 1663 (Primary HTS), 1678 (Summary of Project)]; format: functional
Caspase-3 = biological target: T9, Caspase-3 (Homo sapiens, UniProt P42574); format: functional;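 further: Dose-response selectivity test against caspase-3 for candidate inhibitors of sentrin-specific proteases (SENPs)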
T9 sequence (P42574 whole entry): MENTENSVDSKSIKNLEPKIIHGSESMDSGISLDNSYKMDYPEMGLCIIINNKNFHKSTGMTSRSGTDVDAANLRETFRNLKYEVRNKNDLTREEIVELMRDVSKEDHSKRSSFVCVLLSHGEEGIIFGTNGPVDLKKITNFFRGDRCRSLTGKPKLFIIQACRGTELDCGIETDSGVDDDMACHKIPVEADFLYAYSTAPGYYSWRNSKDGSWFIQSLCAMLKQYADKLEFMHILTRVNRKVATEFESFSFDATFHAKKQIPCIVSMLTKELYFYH

SMILES	AC50 (DNA topoisomerase)	IC50 (Phospholipase A2)	IC50 (Cysteine protease ATG4B)	EC50 [2]	EC50 [4]	further results
COc1cc2c(cc1OC)C1=NC(=O)CN1C(SCc1ccc(C)cc1)=N2	13.8 µM (active)					
O=C(NCc1cccc(C(F)(F)F)c1)c1cc(Cl)cc(Cl)c1		2.38 µM (active)	41 µM (inactive)			AC50 (Cytochrome P450 2C9): inconclusive
CCCCCn1c(SCCC(C)C)nc2c1c(=O)[nH]c(=O)n2C	> 38 µM (inactive)					
C=CCn1c(SCc2cc(C(C)=O)ccc2OCC)nc2ccccc2c1=O		1.3 µM (active)	5.1 µM (active)			
Cc1ccccc1NCC(=O)c1ccc(Br)cc1	1.96 µM (active)					EC50 (Beta-galactosidase): > 40 µM (inactive); IC50 [1]: 8.62 µM (active)
O=C(NCc1cccc(C(F)(F)F)c1)N1CCN(S(=O)(=O)c2ccccc2F)CC1		7.61 µM (active)	12.5 µM (active)			
CCOC(=O)[C@H]1[C@H]2COc3ccc(Br)cc3[C@H]2N2C(=O)CN(Cc3ccc(C)cc3)C(=O)[C@@]12C				4.72 µM (active)	> 99 µM (inactive)	IC50 [3]: > 66 µM (inactive); IC50 [5]: 49.1 µM (inactive)
Oc1ccc(Cl)cc1/C=C/c1ccc2cccc(O)c2n1				44.8 µM (inactive)	> 99 µM (inactive)	IC50 (Prothrombin): > 50 µM (not active); AC50 [6]: 3.87 µM (active)
COc1ccccc1/N=C/c1c(O)oc2ccccc2c1=O						IC50 [7]: 2.87 µM (active); IC50 [8]: > 100 µM (inactive); IC50 [9]: > 100 µM (inactive); EC50 [10]: 1.3 µM (active); EC50 [11]: > 112 µM (not active); IC50 (Caspase-3): > 100 µM (inactive)
COc1ccc(C(=O)n2nc(-c3ccco3)nc2SC)cc1OC				> 99 µM (inactive)	45.8 µM (inactive)	IC50 (Prothrombin): 0.204 µM (active)
